This note sets out measurements from US20230059009A1, “INHIBITORS OF LIN28 AND METHODS OF USE THEREOF” (The Regents of the University of California, priority 2019, published 2023).

Data set [1] has as its system 22RV1. The data set can be described thus: Cell viability, MTT assay, 22RV1. Type of data set: cell-based. The settings on record: 22RV1 (Prostate), 96 hr. The protocol: (§1) To measure cell viability, cell titer glow (CTG, Promega CellTiter-Glo 2.0 Assay) and MTT assays (SigmaAldrich, Cell Proliferation Kit I) were performed. Briefly, cells were serum starved overnight prior to seeding in 96-well plates. Following 24 h incubation, cells were treated with increasing concentrations of JGJ compounds for 96 hr. At assay read-out, CellTiter-Glo reagent was added and luminescence was measured after 10-minutes incubation at room temperature. For the MTT assay, MTT labeling reagent was added and incubated for 4 h. Subsequently, medium was removed and 50 μL DMSO was added to solubilize the crystals, and absorbance was measured at 570 nm. Cell viability was calculated as (Sample-Background)/(Control-Background).
In general terms: Formazan colour is commonly taken as a measure of viable cells.

For data set [2], the system named is MDA-MB231. The data set can be described thus: Cell viability, CTG, MDA-MB231. The settings on record: Homo sapiens, MDA-MB-231, MDA-MB231 (Breast). Type of data set: cell-based. On the procedure:
as §1, with “(Sample-Background)/(Control-Background). Current standard of care drugs, Enzalutamide, Palbociclib and Cetuximab were used as comparative controls.” for “(Sample-Background)/(Control-Background).”

For data set [3], the target named is CYP 2D6 (Homo sapiens, UniProt P10635). The data set can be described thus: CYP inhibition 2D6. Type of data set: in vitro ADME. More on the design: unit not given here. The settings on record: Conc. 30 uM.
Sequence of CYP 2D6 (P10635 whole entry): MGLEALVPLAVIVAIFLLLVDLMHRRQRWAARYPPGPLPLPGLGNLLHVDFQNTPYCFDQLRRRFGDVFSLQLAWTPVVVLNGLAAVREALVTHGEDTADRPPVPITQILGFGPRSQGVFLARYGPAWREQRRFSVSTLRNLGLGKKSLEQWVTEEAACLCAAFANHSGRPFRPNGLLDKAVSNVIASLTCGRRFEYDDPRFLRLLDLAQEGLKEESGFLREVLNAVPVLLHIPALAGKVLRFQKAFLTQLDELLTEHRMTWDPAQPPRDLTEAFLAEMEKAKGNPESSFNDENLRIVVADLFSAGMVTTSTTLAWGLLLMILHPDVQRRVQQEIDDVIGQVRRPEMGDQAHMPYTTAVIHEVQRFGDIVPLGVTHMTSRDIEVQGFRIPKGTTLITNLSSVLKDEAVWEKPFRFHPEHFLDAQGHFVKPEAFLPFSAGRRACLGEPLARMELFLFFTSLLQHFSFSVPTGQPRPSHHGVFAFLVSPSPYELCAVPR
The test system of data set [4] is H460. The data set is described as follows: Cell viability, MTT assay, H460. The data set is classed as cell-based. On the procedure: as §1, with “(Sample-Background)/(Control-Background). Current standard of care drugs, Enzalutamide, Palbociclib and Cetuximab were used as comparative controls.” for “(Sample-Background)/(Control-Background).”
Data set [5] deals with MDA-MB231. The data set can be described thus: Cell viability, MTT assay, MDA-MB231. Type of data set: cell-based. On the procedure:
as §1, with “(Sample-Background)/(Control-Background). Current standard of care drugs, Enzalutamide, Palbociclib and Cetuximab were used as comparative controls.” for “(Sample-Background)/(Control-Background).”

Data set [6] has as its system A549. The data set is described as follows: Cell viability, MTT assay, A549. As to conditions: A549 (Lung). Type of data set: cell-based. The protocol: as §1
For data set [7], the system named is LNCaP. The data set can be described thus: Cell viability, MTT assay, LNCaP. Type of data set: cell-based. The settings on record: LNCaP (Prostate). The protocol:
as §1

Data set [8] has as its system MCF7. The data set is described as follows: Cell viability, MTT assay, MCF7. As to conditions: MCF7 (Breast). The data set is classed as cell-based. The protocol:
as §1, with “(Sample-Background)/(Control-Background). Current standard of care drugs, Enzalutamide, Palbociclib and Cetuximab were used as comparative controls.” for “(Sample-Background)/(Control-Background).”

Data set [9] relates to SW480. The data set is described as follows: Cell viability, MTT assay, SW480. Type of data set: cell-based. The settings on record: SW480 (Colon). The protocol:
as §1, with “(Sample-Background)/(Control-Background). Current standard of care drugs, Enzalutamide, Palbociclib and Cetuximab were used as comparative controls.” for “(Sample-Background)/(Control-Background).”

The nature of data set [10]: Microsomal stability, CD-1 Mouse. Type of data set: in vitro ADME. The settings on record: for CLint scaled at 30 uM / half-life at 30 uM: microsomes; for half-life at 30 uM: read-out: Microsomal stability T½.
Data set [11] deals with CYP 2C19 (Homo sapiens, UniProt P33261). The data set is described as follows: CYP inhibition 2C19. Type of data set: in vitro ADME. The arrangement: unit not given here. The settings on record: Conc. 30 uM.
Sequence of CYP 2C19 (P33261 whole entry): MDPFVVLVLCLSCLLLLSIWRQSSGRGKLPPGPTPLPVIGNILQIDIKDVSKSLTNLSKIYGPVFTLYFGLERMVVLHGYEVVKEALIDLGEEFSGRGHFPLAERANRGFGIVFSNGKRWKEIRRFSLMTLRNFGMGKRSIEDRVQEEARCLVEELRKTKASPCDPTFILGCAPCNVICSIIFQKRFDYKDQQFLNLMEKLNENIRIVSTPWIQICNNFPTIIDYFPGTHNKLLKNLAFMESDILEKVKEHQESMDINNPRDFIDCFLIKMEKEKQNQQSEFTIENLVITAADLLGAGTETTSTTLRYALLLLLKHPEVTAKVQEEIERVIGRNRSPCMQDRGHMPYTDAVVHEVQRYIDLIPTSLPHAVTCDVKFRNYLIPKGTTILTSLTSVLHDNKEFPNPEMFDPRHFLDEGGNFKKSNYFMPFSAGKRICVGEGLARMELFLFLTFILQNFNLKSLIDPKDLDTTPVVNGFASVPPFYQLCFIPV
For data set [12], the system named is CAPAN-1. The data set is described as follows: Cell viability, CTG, CAPAN-1. Type of data set: cell-based. As to conditions: CAPAN-1 (Pancreatic). On the procedure: as §1, with “(Sample-Background)/(Control-Background). Current standard of care drugs, Enzalutamide, Palbociclib and Cetuximab were used as comparative controls.” for “(Sample-Background)/(Control-Background).”

The test system of data set [13] is ASPC-1. The data set can be described thus: Cell viability, CTG, ASPC-1. Type of data set: cell-based. On the procedure:
as §1, with “(Sample-Background)/(Control-Background). Current standard of care drugs, Enzalutamide, Palbociclib and Cetuximab were used as comparative controls.” for “(Sample-Background)/(Control-Background).”

Data set [14] concerns SW620. The data set is described as follows: Cell viability, MTT assay, SW620. Type of data set: cell-based. On the procedure:
as §1, with “(Sample-Background)/(Control-Background). Current standard of care drugs, Enzalutamide, Palbociclib and Cetuximab were used as comparative controls.” for “(Sample-Background)/(Control-Background).”

Data set [15] deals with H1975. The data set is described as follows: Cell viability, MTT assay, H1975. Type of data set: cell-based. The protocol: as §1
For data set [16], the system named is SW480. The data set can be described thus: Cell viability, CTG, SW480. Type of data set: cell-based. The settings on record: SW480 (Colon). The protocol: as §1
The subject of data set [17] is DU145. The data set is described as follows: Cell viability, MTT assay, DU145. The data set is classed as cell-based. As to conditions: Homo sapiens, DU-145, DU145 (Prostate). On the procedure: as §1, with “(Sample-Background)/(Control-Background). Current standard of care drugs, Enzalutamide, Palbociclib and Cetuximab were used as comparative controls.” for “(Sample-Background)/(Control-Background).”

Data set [18] relates to H23. The data set is described as follows: Cell viability, MTT assay, H23. Type of data set: cell-based. On the procedure: as §1, with “(Sample-Background)/(Control-Background). Current standard of care drugs, Enzalutamide, Palbociclib and Cetuximab were used as comparative controls.” for “(Sample-Background)/(Control-Background).”
The subject of data set [19] is BT-549. The data set is described as follows: Cell viability, CTG, BT-549. The data set is classed as cell-based. As to conditions: BT-549 (Breast). On the procedure: as §1, with “(Sample-Background)/(Control-Background). Current standard of care drugs, Enzalutamide, Palbociclib and Cetuximab were used as comparative controls.” for “(Sample-Background)/(Control-Background).”

The test system of data set [20] is HCT-116. The data set is described as follows: Cell viability, CTG, HCT-116. The settings on record: HCT-116 (Colon). Type of data set: cell-based. The protocol: as §1, with “(Sample-Background)/(Control-Background). Current standard of care drugs, Enzalutamide, Palbociclib and Cetuximab were used as comparative controls.” for “(Sample-Background)/(Control-Background).”

The target in data set [21] is CYP 2C9 (Homo sapiens, UniProt P11712). The data set is described as follows: CYP inhibition 2C9. The data set is classed as in vitro ADME. More on the design: unit not given here. The settings on record: Conc. 30 uM.
Sequence of CYP 2C9 (P11712 whole entry): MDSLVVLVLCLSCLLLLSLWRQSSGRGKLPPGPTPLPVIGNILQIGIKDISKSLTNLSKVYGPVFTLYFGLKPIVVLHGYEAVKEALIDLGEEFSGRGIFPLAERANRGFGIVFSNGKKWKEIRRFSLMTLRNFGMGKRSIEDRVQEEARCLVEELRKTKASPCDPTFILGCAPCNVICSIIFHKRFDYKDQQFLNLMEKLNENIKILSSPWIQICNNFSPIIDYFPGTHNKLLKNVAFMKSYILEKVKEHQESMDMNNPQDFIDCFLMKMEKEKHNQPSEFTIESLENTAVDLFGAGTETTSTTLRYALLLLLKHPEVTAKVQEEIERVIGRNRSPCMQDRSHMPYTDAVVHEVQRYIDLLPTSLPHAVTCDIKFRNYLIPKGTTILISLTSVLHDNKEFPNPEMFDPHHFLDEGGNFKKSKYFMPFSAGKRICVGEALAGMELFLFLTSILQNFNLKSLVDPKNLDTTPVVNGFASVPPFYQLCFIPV
Data set [22] concerns the target T1, CYP 1A2 (Homo sapiens, UniProt P05177).
T1 sequence (P05177 1-516): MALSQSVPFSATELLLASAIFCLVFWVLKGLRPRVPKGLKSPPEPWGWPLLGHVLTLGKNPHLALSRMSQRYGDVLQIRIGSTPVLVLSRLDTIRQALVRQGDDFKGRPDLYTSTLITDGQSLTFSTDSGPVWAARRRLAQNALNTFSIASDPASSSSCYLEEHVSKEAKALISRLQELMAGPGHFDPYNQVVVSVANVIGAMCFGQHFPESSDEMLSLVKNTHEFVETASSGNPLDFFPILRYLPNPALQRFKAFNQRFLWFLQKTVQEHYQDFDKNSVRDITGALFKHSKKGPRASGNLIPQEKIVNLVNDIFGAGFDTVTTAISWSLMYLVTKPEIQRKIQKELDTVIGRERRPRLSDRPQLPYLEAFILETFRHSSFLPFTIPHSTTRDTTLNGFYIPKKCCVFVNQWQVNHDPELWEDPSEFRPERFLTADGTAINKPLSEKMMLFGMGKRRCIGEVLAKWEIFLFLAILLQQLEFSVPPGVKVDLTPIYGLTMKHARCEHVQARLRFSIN
The data set can be described thus: CYP inhibition 1A2. The data set is classed as in vitro ADME. The arrangement: unit not given here. As to conditions: Conc. 30 uM.

Where [23] appears, read: Homo sapiens, NCI-H460, H460 (Lung).
The mark [24] stands for this setting: Homo sapiens, MDA-MB-231, MDA-MB231 (Breast).
Setting [25] is: Homo sapiens, ASPC1, ASPC-1 (Pancreatic).
Setting [26] is: Homo sapiens, SW-620, SW620 (Colon).
The mark [27] stands for this setting: Homo sapiens, NCI-H1975, H1975 (Lung).
The mark [28] stands for this setting: Homo sapiens, NCI-H23, H23 (Lung).

As a reminder, the IC50 is the concentration needed to halve the response being measured. The term CLint scaled denotes the rate of metabolic loss divided by the concentration. On to `CC(=O)Nc1cccc(-c2ccc3ncc(C)n3n2)c1` [JGJ007, N-(3-(3-Methylimidazo[1,2-b]pyridazin-6-yl)phenyl)acetamide], for which the IC50 is 97 µM in data set [1] (Homo sapiens); 43 µM in data set [2]; 512 µM in data set [4] (setting [23]); 39 µM in data set [5] (setting [24]); 97 µM in data set [6] (Homo sapiens); 54 µM in data set [7] (Homo sapiens). Besides, the concentration for half-maximal inhibition (IC50) in data set [8] (Homo sapiens) is 45 µM; in data set [9] (Homo sapiens), 64 µM; in data set [12] (Homo sapiens) it was 91 µM; in data set [13] (setting [25]), 188 µM; in [14] (setting [26]), 64 µM; in [15] (setting [27]) it was 31 µM. Also, the IC50 stood at 68 µM in data set [16] (Homo sapiens); 5 µM in data set [17]; 95 µM in data set [18] (setting [28]); 75 µM in [19] (Homo sapiens); 148 µM in data set [20] (Homo sapiens). Also, the “CYP inhibition 2D6” value in data set [3] was 54.08. Besides, the “Microsomal stability % Remaining at T30” value in [10] (Conc. 30 uM) is “T30 = 37.6%”. In data set [10] (Conc. 30 uM), the CLint scaled at 30 uM was found to be 257 mL/min/kg. The half-life at 30 uM in data set [10] (Conc. 30 uM) was determined as 21.2 min. Also, the “CYP inhibition 2C19” value in data set [11] is 37.08. In addition, the “CYP inhibition 2C9” value in [21] turned out to be 24.65. In [22], the “CYP inhibition 1A2” value was 97.3.
Regarding `Cc1cnc2ccc(-c3cccc(F)c3)nn12` [JGJ015, 6-(3-Fluorophenyl)-3-methylimidazo[1,2-b]pyridazine], the half-inhibitory concentration (IC50) worked out at 209 µM in data set [1] (Homo sapiens); 75 µM in [2]; 594 µM in data set [4] (setting [23]); 145 µM in data set [5] (setting [24]); 93 µM in data set [6] (Homo sapiens); 83 µM in [7] (Homo sapiens). Also, the IC50 in data set [8] (Homo sapiens) was 59 µM; in data set [9] (Homo sapiens) it was 53 µM; in data set [12] (Homo sapiens) it was 137 µM; in data set [13] (setting [25]), 157 µM; in data set [14] (setting [26]), 62 µM; in data set [15] (setting [27]) it was 51 µM. Further, the IC50 in data set [16] (Homo sapiens) was 110 µM; in data set [17], 30 µM; in data set [18] (setting [28]), 62 µM; in data set [19] (Homo sapiens), 48 µM; in data set [20] (Homo sapiens), 148 µM. In addition, in data set [3], the “CYP inhibition 2D6” value was 19.38. Moreover, the “Microsomal stability % Remaining at T30” value in data set [10] (Conc. 30 uM) is “T30 = 2.3%”. Further, the CLint scaled at 30 uM in data set [10] (Conc. 30 uM) worked out at 988 mL/min/kg. Moreover, in [10] (Conc. 30 uM), the half-life at 30 uM is 5.52 min. The “CYP inhibition 2C19” value in data set [11] was 49.8. The “CYP inhibition 2C9” value in data set [21] is 14.27. The “CYP inhibition 1A2” value in data set [22] amounted to 96.4.
Consider `CC(=O)N(C)c1cccc(-c2ccc3nnc(C)n3n2)c1` [LN1632], for which the concentration for half-maximal inhibition (IC50) in [1] came to 236 µM; in data set [4] (H460 (Lung)), 172 µM; in data set [5] (MDA-MB231 (Breast)), 136 µM; in data set [6], 151 µM; in data set [7] it was 110 µM; in data set [8], 144 µM. The IC50 amounted to 155 µM in data set [9]; 82 µM in data set [12]; 111 µM in [13] (ASPC-1 (Pancreatic)); 161 µM in data set [14] (SW620 (Colon)); 91 µM in data set [15] (H1975 (Lung)); 168 µM in data set [16]. Besides, the IC50 in data set [18] (H23 (Lung)) was found to be 167 µM; in data set [19] it was 151 µM; in [20], 158 µM. Further, the “Microsomal stability % Remaining at T30” value in data set [10] (Conc. 100 uM) was “T30 = 90.2%”. The “Microsomal stability CLint” value in data set [10] (Conc. 100 uM) is listed as “kg) = 27 mL/min/kg”. Moreover, in data set [10] (Conc. 100 uM), the “Microsomal stability T½” value is “T½ = 202 min”.
